Results on 24 compounds are retold here after patent US20050096350A1, “Halo substituted benzo[b]thiophenes as therapeutic agents” (priority 2003, published 2005).

T1 sequence (P48736 whole entry, species assumed): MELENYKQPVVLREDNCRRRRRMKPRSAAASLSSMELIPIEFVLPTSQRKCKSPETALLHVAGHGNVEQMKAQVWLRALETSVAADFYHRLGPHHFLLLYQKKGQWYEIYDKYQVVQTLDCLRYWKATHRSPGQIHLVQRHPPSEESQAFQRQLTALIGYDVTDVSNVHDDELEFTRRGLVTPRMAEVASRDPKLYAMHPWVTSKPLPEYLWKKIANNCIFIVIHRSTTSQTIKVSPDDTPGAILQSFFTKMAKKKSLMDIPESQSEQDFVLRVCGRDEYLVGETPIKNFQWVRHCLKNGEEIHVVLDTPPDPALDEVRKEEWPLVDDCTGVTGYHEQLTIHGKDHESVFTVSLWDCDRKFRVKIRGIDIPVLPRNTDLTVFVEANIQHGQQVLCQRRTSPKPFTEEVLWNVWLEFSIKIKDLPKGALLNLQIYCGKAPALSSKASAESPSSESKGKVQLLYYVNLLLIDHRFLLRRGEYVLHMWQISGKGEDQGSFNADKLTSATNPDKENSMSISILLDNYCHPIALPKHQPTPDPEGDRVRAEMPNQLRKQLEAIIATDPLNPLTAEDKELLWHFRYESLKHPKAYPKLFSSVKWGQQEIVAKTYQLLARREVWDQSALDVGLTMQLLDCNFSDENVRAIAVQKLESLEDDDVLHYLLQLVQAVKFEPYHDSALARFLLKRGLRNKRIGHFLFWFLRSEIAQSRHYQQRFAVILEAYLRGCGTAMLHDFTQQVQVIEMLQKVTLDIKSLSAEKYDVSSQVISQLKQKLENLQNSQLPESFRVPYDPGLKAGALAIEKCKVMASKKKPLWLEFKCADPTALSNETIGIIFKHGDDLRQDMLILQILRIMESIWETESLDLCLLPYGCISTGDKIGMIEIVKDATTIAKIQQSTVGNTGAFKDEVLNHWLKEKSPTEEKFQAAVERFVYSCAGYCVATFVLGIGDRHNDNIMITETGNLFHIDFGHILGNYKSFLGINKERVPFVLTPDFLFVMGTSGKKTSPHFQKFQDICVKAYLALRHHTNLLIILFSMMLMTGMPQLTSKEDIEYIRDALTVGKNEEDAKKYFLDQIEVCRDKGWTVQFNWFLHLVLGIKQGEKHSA
T1 sequence (Q8WYR1 whole entry partner, species assumed): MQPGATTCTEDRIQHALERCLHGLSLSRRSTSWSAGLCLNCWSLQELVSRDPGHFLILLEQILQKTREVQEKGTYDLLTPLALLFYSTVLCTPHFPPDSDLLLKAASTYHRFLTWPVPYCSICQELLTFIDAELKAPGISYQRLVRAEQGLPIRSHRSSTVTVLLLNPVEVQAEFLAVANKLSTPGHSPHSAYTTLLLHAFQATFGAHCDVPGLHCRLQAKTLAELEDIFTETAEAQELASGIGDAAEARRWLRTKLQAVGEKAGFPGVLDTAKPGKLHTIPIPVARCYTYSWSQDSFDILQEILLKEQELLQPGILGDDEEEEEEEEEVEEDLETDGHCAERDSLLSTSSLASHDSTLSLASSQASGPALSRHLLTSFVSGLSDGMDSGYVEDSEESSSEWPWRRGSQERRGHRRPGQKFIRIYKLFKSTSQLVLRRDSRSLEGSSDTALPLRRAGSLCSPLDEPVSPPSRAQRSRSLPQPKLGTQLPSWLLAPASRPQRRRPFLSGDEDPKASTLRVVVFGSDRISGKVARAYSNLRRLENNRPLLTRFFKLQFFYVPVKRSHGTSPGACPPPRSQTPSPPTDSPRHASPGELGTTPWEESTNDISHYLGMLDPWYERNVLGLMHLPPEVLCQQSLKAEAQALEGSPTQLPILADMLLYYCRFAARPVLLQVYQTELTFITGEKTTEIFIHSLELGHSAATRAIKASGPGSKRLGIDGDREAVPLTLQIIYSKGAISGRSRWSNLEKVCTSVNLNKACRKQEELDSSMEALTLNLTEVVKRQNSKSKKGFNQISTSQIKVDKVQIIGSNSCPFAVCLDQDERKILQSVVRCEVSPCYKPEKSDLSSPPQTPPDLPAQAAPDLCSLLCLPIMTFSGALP

One assay addresses T1, PI3Kγ (purified recombinant p101/p110γ protein) (Homo sapiens, UniProt P48736).
T1 construct: HA; made in house; host or cells: Spodoptera frugiperda Sf9 cells (baculovirus coinfection)
The assay can be described thus: PI3Kγ in vitro kinase assay. The format is biochemical. Particulars: 20 μM ATP, 25 μM PIP2, G protein β1/γ2 subunits. The procedure: Spodtera frugiperda cells, grown in ESF921 media, were coinfected with baculovirus expressing a glu-tagged p101 and baculovirus expressing an HA-tagged […], at a 3:1 ratio of p101 baculovirus to p110γ baculovirus. Sf9 cells were grown to 1×10^7 total cells/mL in 10 L bioreactors and harvested 48-72 hours post infection. Samples of infected cells were then tested for expression of p101/p110γ PI3 kinase by immunoprecipitation and Western Blot analysis methods (see below).
To purify PI3Kγ, 4 volumes of room temperature hypotonic lysis buffer (1 mM MgCl2, 1 mM DTT, 5 mM EGTA, 1 mM Pefabloc, 0.5 μM aprotinin, 5 μM leupeptin, 2 μM pepstatin, 5 μM E64, pH 8) per gram of cell paste, was poured onto frozen cell pellets with stirring, then lysed in a nitrogen “bomb” at 400 psi (599HC T316, Parr Instrument Co, Moline, Ill.). NaCl was added to 150 mM, and sodium cholate was added to 1% and mixed for another 45 minutes. The lysates were clarified by centrifugation for 25 minutes at 14,000 rpm. The lysates were then loaded over anti-glu-linked Protein-G Sepaharose beads (Covance Research Products, Richmond, Calif.) using 20 mL resin/50 g cell paste. The column was washed with 15 volumes of wash buffer (1 mM DTT, 0.2 mM EGTA, 1 mM Pefabloc, 0.5 μM aprotinin, 5 μM leupeptin, 2 μM pepstatin, 5 μM E64, 150 mM NaCl, 1% sodium cholate, pH 8). PI3Kγ was eluted with 6 column volumes of wash buffer that contain 100 μg/mL of a peptide that competes for binding of the glu tag. The column fractions with the eluted protein (determined by taking OD280 readings) were collected and dialyzed in 0.2 mM EGTA, 1 mM DTT, 1 mM Pefabloc, 5 μM leupeptin, 0.5% sodium cholate, 150 mM NaCl, and 50% glycerol, pH 8. The fractions were stored at −80° C. until further use.
Spodtera frugiperda cells were coinfected with baculovirus expressing a glu-tagged G protein β1 and baculovirus expressing a G protein β2, at a 1:1 ratio of glu-tagged G protein β1 baculovirus to G protein β2 baculovirus. Sf9 cells are grown in 10 L bioreactors and harvested 48-72 hours post infection. Samples of infected cells were tested for G protein β1/β2 expression by Western Blot analysis, as described below. Cell lysates were homogenized and loaded onto a column of glu-tagged beads as in Biological Example 1 and competed off the column with a glu peptide and processed as described in Biological Example 1.
The inhibitory properties of the compounds in Table 1 were assayed in an in vitro PI3K assay. In a 96-well polypropylene plate, each well was spotted with 2 μL of 50 times the desired final concentration of compound in DMSO. Purified recombinant p101/p110γ protein (0.03 μg; ˜2.7 nM) and G protein β1/γ2 subunits (0.09 μg; ˜57.7 nM) for each reaction was combined in the assay buffer (30 mM HEPES, 100 mM NaCl, 1 mM EGTA, and 1 mM DTT). ATP and [γ-^32P-ATP] (0.09 μCi) were added to this mixture so that the final ATP concentration in the reaction was 20 μM. Lipid micelles were formed by sonicating phosphatidylinositol-4,5-diphosphate (PIP2), phosphatidylethanolamine (PE), and Na-cholate in the assay buffer for 10 minutes, adding MgCl2 and incubating on ice for 20 minutes, for final concentrations of 25 μM PIP2, 300 μM PE, 0.02% Na-cholate, and 10 mM MgCl2 in the reaction. The reactions were started by adding equal volumes lipid and enzyme mixture in a total volume of 50 μL, allowed to run for 20 minutes at room temperature, and stopped with 100 μL 75 mM H3PO4. The lipid product was transferred to a glass fiber filter plate and washed with 75 mM H3PO4 several times. The presence of radioactive lipid product (PIP3) was measured by adding Wallac Optiphase mix to each well and counting in a Wallac 1450 Trilux plate reader (PerkinElmer Life Sciences Inc., Boston, Mass. 02118). The IC50 for each compound tested is reported in μM in the Tables above.
`COC(=O)c1cccc(Sc2c(C(=O)Nc3nnn[nH]3)sc3ccc(OC)c(F)c23)c1` [Example 24, 3-[4-Fluoro-5-methoxy-2-(1H-tetrazol-5-ylcarbamoyl)-benzo[b]thiophen-3-ylsulfanyl]-benzoic acid methyl ester]: the concentration for half-maximal inhibition (IC50) (commonly the concentration at which inhibition is half-maximal) turned out to be 4200 nM.
Turning to “3-[2-(Acetyl-methyl-amino)-1-phenyl-propylsulfanyl]-4-fluoro-5-methoxy-benzo[b]thiophene-2-carboxylic acid (1H-tetrazol-5-yl)-amide [Example 30]”, the IC50 was 20000 nM.
Still for that read-out and setting: the value for `COc1ccc2sc(C(=O)Nc3nnn[nH]3)c(Sc3cccc(O)c3)c2c1F` [Example 23, 4-Fluoro-3-(3-hydroxy-phenylsulfanyl)-5-methoxy-benzo[b]thiophene-2-carboxylic acid (1H-tetrazol-5-yl)-amide] was 3640 nM; that for `COc1ccc2sc(C(=O)Nc3nnn[nH]3)c(Sc3ccc(C(=O)O)cc3)c2c1F` [Example 34, 4-[4-Fluoro-5-methoxy-2-(1H-tetrazol-5-ylcarbamoyl)-benzo[b]thiophen-3-ylsulfanyl]-benzoic acid] was 5950 nM; that for `COc1cc2c(Oc3ccc(Cl)cc3)c(C(=O)Nc3nn[nH]n3)sc2cc1F` [Example 1, 3-(4-Chloro-phenoxy)-6-fluoro-5-methoxy-benzo[b]thiophene-2-carboxylic acid (2H-tetrazol-5-yl)-amide] was 76.5 nM.
The same measure, in the same setting: the value for `COc1cc2c(Oc3ccc(C4CCCCC4)cc3)c(C(=O)Nc3nn[nH]n3)sc2cc1F` [Example 4, 3-(4-Cyclohexyl-phenoxy)-6-fluoro-5-methoxy-benzo[b]thiophene-2-carboxylic acid (2H-tetrazol-5-yl)-amide] was 33.5 nM; that for `CCc1cccc(Oc2c(C(=O)Nc3nn[nH]n3)sc3cc(F)c(OC)cc23)c1` [Example 5, 3-(3-Ethyl-phenoxy)-6-fluoro-5-methoxy-benzo[b]thiophene-2-carboxylic acid (2H-tetrazol-5-yl)-amide] was 62.5 nM; that for `COc1cccc(Sc2c(C(=O)Nc3nnn[nH]3)sc3ccc(OC)c(F)c23)c1` [Example 32, 4-Fluoro-5-methoxy-3-(3-methoxy-phenylsulfanyl)-benzo[b]thiophene-2-carboxylic acid (1H-tetrazol-5-yl)-amide] was 5940 nM.
Still for that read-out and setting: the value for `COc1cc2c(OC3CCCC(C)(C)C3)c(C(=O)Nc3nn[nH]n3)sc2cc1F` (stereo not drawn) [Example 13, 3-(3,3-Dimethyl-cyclohexyloxy)-6-fluoro-5-methoxy-benzo[b]thiophene-2-carboxylic acid (2H-tetrazol-5-yl)-amide] was 6.5 nM; that for `COc1cc2c(OC3CCCCCC3)c(C(=O)Nc3nn[nH]n3)sc2cc1F` [Example 8, 3-Cycloheptyloxy-6-fluoro-5-methoxy-benzo[b]thiophene-2-carboxylic acid (2H-tetrazol-5-yl)-amide] was 3.4 nM.
For `COc1ccc2sc(C(=O)Nc3nnn[nH]3)c(Sc3cccc(Cl)c3)c2c1F` [Example 31, 3-(3-Chloro-phenylsulfanyl)-4-fluoro-5-methoxy-benzo[b]thiophene-2-carboxylic acid (1H-tetrazol-5-yl)-amide], the concentration for half-maximal inhibition (IC50) is 5870 nM.
On to `COc1cc2c(OC3CC(C)CC(C)(C)C3)c(C(=O)Nc3nn[nH]n3)sc2cc1F` (stereo not drawn) [Example 12, 6-Fluoro-5-methoxy-3-(3,3,5-trimethyl-cyclohexyloxy)-benzo[b]thiophene-2-carboxylic acid (2H-tetrazol-5-yl)-amide], for which the IC50 is 5.3 nM.
Turning to `COC(=O)CCc1ccc(Sc2c(C(=O)Nc3nnn[nH]3)sc3ccc(OC)c(F)c23)cc1` [Example 28, 3-{4-[4-Fluoro-5-methoxy-2-(1H-tetrazol-5-ylcarbamoyl)-benzo[b]thiophen-3-ylsulfanyl]-phenyl}-propionic acid methyl ester], the IC50 came to 14900 nM.
Same read-out and setting: with `COc1cc2c(Oc3ccc(OC4CCCC4)cc3)c(C(=O)Nc3nn[nH]n3)sc2cc1F` [Example 2, 3-(4-Cyclopentyloxy-phenoxy)-6-fluoro-5-methoxy-benzo[b]thiophene-2-carboxylic acid (2H-tetrazol-5-yl)-amide] the figure was 15 nM; with `COc1cccc(Sc2c(C(=O)Nc3nnn[nH]3)sc3cc(F)c(OC)cc23)c1` [Example 18, 6-Fluoro-5-methoxy-3-(3-methoxy-phenylsulfanyl)-benzo[b]thiophene-2-carboxylic acid (1H-tetrazol-5-yl)-amide], 470 nM; with “4-Fluoro-5-methoxy-3-(3-trifluoromethyl-phenylsulfanyl)-benzo[b]thiophene-2-carboxylic acid (1H-tetrazol-5-yl)-amide [Example 29]”, 11000 nM.
The same measure, in the same setting: the value for `COc1cc2c(Sc3ccccc3)c(C(=O)Nc3nnn[nH]3)sc2cc1F` [Example 19, 6-Fluoro-5-methoxy-3-phenylsulfanyl-benzo[b]thiophene-2-carboxylic acid (1H-tetrazol-5-yl)-amide] was 32.5 nM; that for `COc1ccc(Sc2c(C(=O)Nc3nnn[nH]3)sc3ccc(OC)c(F)c23)cc1` [Example 33, 4-Fluoro-5-methoxy-3-(4-methoxy-phenylsulfanyl)-benzo[b]thiophene-2-carboxylic acid (1H-tetrazol-5-yl)-amide] was 19400 nM.

The assay is the same for the next values; noted with them: 20 μM ATP, 25 μM PIP2, G protein β1/γ2 subunits, table b197.
As to `COc1cc2c(O[C@H]3CCC[C@H](C)C3)c(C(=O)Nc3nn[nH]n3)sc2cc1F` (racemic) [Example 17, trans-(±)-6-Fluoro-5-methoxy-3-(3-methyl-cyclohexyloxy)-benzo[b]thiophene-2-carboxylic acid (2H-tetrazol-5-yl)-amide], the half-inhibitory concentration (IC50) amounted to 35 nM.

The assay is the same for the next values; noted with them: 20 μM ATP, 25 μM PIP2, G protein β1/γ2 subunits, table b284.
Regarding `COc1ccc2c(SC3CCCC3)c(C(=O)Nc3nnn[nH]3)sc2c1F` [Example 39, 3-Cyclopentylsulfanyl-7-fluoro-6-methoxy-benzo[b]thiophene-2-carboxylic acid (1H-tetrazol-5-yl)-amide], the half-maximal inhibitory concentration (IC50) came to 16 nM.

Staying with this assay, now noted: 20 μM ATP, 25 μM PIP2, G protein β1/γ2 subunits, table b291.
For the compound “3-Cyclohexylsulfanyl-6-fluoro-5-methyl-benzo[b]thiophene-2-carboxylic acid (1H-tetrazol-5-yl)-amide [Example 41]”, the concentration for half-maximal inhibition (IC50) is 12 nM.
Same read-out and setting: the value for `COc1cc2c(SC3CCCC3)c(C(=O)Nc3nnn[nH]3)sc2cc1F` [Example 42, 3-Cyclopentylsulfanyl-6-fluoro-5-methoxy-benzo[b]thiophene-2-carboxylic acid (1H-tetrazol-5-yl)-amide] was 11 nM.

The assay is the same for the next values; noted with them: 20 μM ATP, 25 μM PIP2, G protein β1/γ2 subunits, table b298.
Regarding `COc1cc2c(Oc3ccc(C4CCCCC4)cc3)c(C(=O)Nc3nn[nH]n3)sc2cc1Br` [Example 43, 6-Bromo-3-(4-Cyclohexyl-phenoxy)-5-methoxy-benzo[b]thiophene-2-carboxylic acid (2H-tetrazol-5-yl)-amide], the 50% inhibitory concentration (IC50) was 380 nM.
Same read-out and setting: the value for `COc1cc2c(Oc3ccc(C4CCCCC4)cc3)c(C(=O)Nc3nn[nH]n3)sc2cc1Cl` [Example 44, 6-Chloro-3-(4-Cyclohexyl-phenoxy)-5-methoxy-benzo[b]thiophene-2-carboxylic acid (2H-tetrazol-5-yl)-amide] was 110 nM.
